Assay results from paper PMC12175168, “Refining the Amino Reactivity-Based Identification of Respiratory Sensitizers” (Chemical Research in Toxicology, 2025).
Values joined by “and” are separate entries in the source; they are usually repeats but may differ in a detail not shown here. Equal entries are not always repeated.

What was measured:
[1] = DPRA-like chemoassay with Gly-pNA (24 h percent depletion); conditions: PPB pH 7.4, 24 h, 25 °C, 50-fold excess of test compound
Procedure: (§1) In addition to the kinetic Gly-pNA chemoassay, the reactivity of the 27 compounds toward Gly-pNA and Lys-pNA was determined in terms of percentage depletions after reacting for 24 h at 25 °C employing the following DPRA-like setup: stock solutions for the test compounds were prepared by gravimetrically adding at least 3 mg of the respective compound into a glass vial (total volume 1.8 mL) and subsequent addition of 1 mL ACN. […] The stock solutions for Gly-pNA and Lys-pNA with a final concentration of 1.7 mM were prepared by dissolving the required amount in one of the three aqueous buffer solutions used for this DPRA-like chemoassay: phosphate buffer (80 mM, pH 7.4), phosphate buffer (80 mM, pH 10.2), and ammonium acetate buffer (100 mM, pH 10.2). Glass vials (1.8 mL) were used as reaction vessels.
(§2) In the final reaction mixtures, the concentration of Gly-pNA or Lys-pNA was 0.03 mM, and the test compound was 50 times in excess (1.5 mM). After incubation for 24 h at 25 °C, the free amount of either Gly-pNA or Lys-pNA was determined using the HPLC UV–vis method described for the kinetic Gly-pNA chemoassay. , The percentage depletion of Gly-pNA (D Gly) or Lys-pNA (D Lys) was determined directly from peak areas according to eq 3 Dx[%]=(Axcontrol−Ax/Axcontrol×100)withx=GlyorLys
(§3) In eq , A x and A x ^control are the peak areas of the chromatographic signal of either Gly-pNA (x = Gly) or Lys-pNA (x = Lys) at 315 nm after 24 h incubation with and without test compound, respectively.
(§4) Summary of experimental conditions of the DPRA-like setups used to determine
(§5) DGly, D Lys, and D DPRA data in Table 2 (main text).
(§6) Table S2. Overview of experimental conditions for the DPRA-like setups used to
(§7) determine 24 h percentage depletion rates for the reaction of the test compounds with
(§8) Gly-pNA, Lys-pNA, and the DPRA lysine peptide (literature data).

[2] = DPRA-like chemoassay with Lys-pNA (24 h percent depletion); conditions: 25 °C, 50-fold excess of test compound
Procedure: as §1, §2, §3, §4, §5, §6, §7, §8

physchem = assay: physchem
Procedure: To this end, the test compound was dissolved in 1 mL ACN in a glass vial. […] As reaction batches, 1.8 mL glass vials equipped with 400 μL glass inserts were used and filled with 220 μL of the respective aqueous buffer and 80 μL of the test compound stock solution. The depletion of the test compounds was recorded with the HPLC UV–vis instrument used for the kinetic Gly-pNA chemoassay. , Chromatographic separation of the reaction mixture was achieved using the gradient described for the Gly-pNA chemoassay previously , and an isocratic HPLC method (water/ACN 70:30, both with 0.1 vol % formic acid). The wavelengths used for the detection of the compound and the information on the used chromatographic method are given in the Supporting Information in Table S3.

DPRA lysine peptide = tested on: DPRA lysine peptide; set-up: method as in literature; conditions: AAB pH 10.2, 24 h; ref literature; cited from earlier work
[3] = Kinetic Gly-pNA chemoassay (second-order rate constant k Gly);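 further: Gly-pNA depletion followed over time by chromatographic peak area, with test compound in at least tenfold excess (pseudo-first-order), added from acetonitrile stock, at least three runs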
Procedure: The reactivity of the 27 test compounds toward Gly-pNA was quantified in terms of the second-order reaction rate constant k Gly using our Gly-pNA chemoassay. , In brief, stock solutions of the test compound were freshly obtained every day by gravimetrically adding the required amount into a 10 mL volumetric flask, which was subsequently filled to volume with acetonitrile (ACN). The required amounts of test compounds depended on their reactivity toward Gly-pNA. […] As usual for kinetic studies, fast reacting chemicals are applied at lower concentrations than little reactive candidates. All stock solutions were stored at 25 °C in a climate chamber before first use (ca. 30 min) and for repeating an experiment (max. 6 h). Gly-pNA stock solution (1.69 mM) was obtained by dissolving 3.3 mg Gly-pNA in 10 mL phosphate buffer solution (80 mM) and could be used for several weeks if stored at 4 °C. For all chemoassay experiments, 1.8 mL glass vials were used as reaction batches, which were initially filled with 1070 μL phosphate buffer (80 mM) and 30 μL Gly-pNA stock solution. To start the reaction, 400 μL of the test compound stock solutions was added. […] The time between the start of the reaction and the first analysis was measured with an electronic time clock. All reactions were performed under pseudo-1st order conditions with the electrophile being at least ten times in excess over Gly-pNA.
For these compounds, the minimum reactivity was estimated in terms of k Gly by plotting ln (A Gly ^ t /A Gly ^0) vs reaction time t (with A Gly ^ t and A Gly ^0 being the peak areas under the chromatographic signal for Gly-pNA at time t and at the beginning of the reaction (t = 0)). Linear regression through 0 (at t = 0) and the first measurement point yields slope s (see Figure S1) which is the pseudo-1st order rate constant k Gly ^pseudo that can be converted with the initial test compound concentration in the reactions mixture (c) into k Gly according to eq . 1 kGly=kGlypseudo/c
2 Ln(AGlyt/AGly0)≈−kGly·c·t+0.5·kGly·kloss·c·t^2 Here k loss is the first order rate constant covering all processes contributing to the loss of the test compounds, except the reaction with Gly-pNA. The regression parameter of the linear part of eq (= k Gly·c) is the pseudo-1st order rate constant k Gly ^pseudo and can be converted into k Gly according to eq (see above).
Linear regression of these plots provides slope s, which is again the pseudo-1st order rate constant, k Gly ^pseudo, and can be used to calculate k Gly according to eq . All experiments to determine k Gly have been conducted at least three times.

[4] = ref Krutz et al., Sadekar et al., Ponder et al., Karol et al., Hopkins et al.; cited from earlier work
[5] = AAB (ammonium acetate buffer) pH 10.2, 24 h
[6] = reaction with Gly-pNA, phosphate buffer 80 mM, 25 °C, nominal test compound concentration, ≥ values are minimum reactivity
[7] = buffer, pH 7.4, half-lives t 1/2 ± s(t 1/2), PPB (phosphate buffer 80 mM) pH 7.4
[8] = buffer, pH 10.2, half-lives t 1/2 ± s(t 1/2), AAP (ammonium acetate buffer 100 mM) pH 10.2
[9] = buffer, pH 10.2, half-lives t 1/2 ± s(t 1/2), PPB (phosphate buffer 80 mM) pH 10.2
[10] = reaction with Gly-pNA, phosphate buffer, nominal test compound concentration
[11] = determined using the free (not bound by water) fraction of F1
[12] = PPB (phosphate buffer 80 mM) pH 7.4

Compound	D Gly ± s(D Gly), 24 h percent depletion of Gly-pNA [1]	D Lys ± s(D Lys), 24 h percent depletion of Lys-pNA [2, 5]	D Lys ± s(D Lys), 24 h percent depletion of Lys-pNA ([2]; PPB pH 10.2, 24 h)	half-life (physchem; buffer, pH 7.4, half-lives t 1/2 ± s(t 1/2)) [min]	half-life (physchem; buffer, pH 10.2, half-lives t 1/2 ± s(t 1/2)) [min]	D DPRA ± s(D DPRA), depletion of the DPRA lysine peptide (DPRA lysine peptide) [%]	k Gly ± s(k Gly), second-order rate constant [3, 6] [L mol^–1 min^–1]	half-life (physchem; [7]) [min]	half-life (physchem; [8]) [min]	half-life (physchem; [9]) [min]	Classification as potential respiratory sensitizer or non-sensitizer [4]	log k Gly [3, 10]	k Gly ± s(k Gly), second-order rate constant [3, 11]	log k Gly [3, 11]	free (reactive) fraction, not bound to water ([3]; in the Gly-pNA chemoassay setup) [%]	half-lives t 1/2 ± s(t 1/2) (physchem; [12])	half-lives t 1/2 ± s(t 1/2) (physchem; PPB (phosphate buffer 80 mM) pH 10.2)	half-life (physchem; aqueous ammonium acetate buffer with acetonitrile, pH 10.2) [min]
Cc1ccc(N=C=O)cc1N=C=O [A1, 2,4-Toluene diisocyanate]	100%	18.8 ± 0.6%	100%	< 1	< 1	22.0 ± 1.4	≥33484 ± 803											
O=C=Nc1cccc2c(N=C=O)cccc12 [A2, 1,5-naphthalene diisocyanate]	100%	19.9 ± 3.7%	100%				≥24928 ± 12821	3.6 ± 1.6	< 1	2.6 ± 1.1	potential respiratory sensitizer	≥4.40						
O=C1C=CC(=O)O1 [C4, maleic anhydride]	100%	12.0 ± 1.1%	100%			54.0 ± 25.5	≥5930 ± 160	35.3 ± 1.3	< 1	2.7		3.77						
O=[N+]([O-])c1ccc(S(=O)(=O)Cl)c([N+](=O)[O-])c1 [E1, 2,4-dinitrobenzenesulfonyl chloride]	56.1% and 56.1 ± 0.5%	13.4% and 13.4 ± 0.8%	62.6% and 62.6 ± 4.2%					< 1	< 1	< 1								
Clc1nc(Cl)nc(Cl)n1 [E2, 2,4,6-trichloro-1,3,5-triazine]	100%	91.1 ± 1.1%	100%			99.7 ± 0.6	≥1424 ± 364	1.14 ± 0.05	< 1	< 1								
C=C(C#N)C(=O)OCC [F1, ethyl 2-cyanoacrylate]	98.3 ± 0.1%	1.6 ± 0.2%	40.2% and 40.2 ± 1.9%				2.22 ± 0.33					0.35	10886 L mol^–1 min^–1 and 10886 ± 1589 ^c L mol^–1 min^–1	4.02 and 4.04	< 0.1			
C=C(C)C(=O)OC [F5, methyl methacrylate]		0.7 ± 0.3%	2.6 ± 1.3%			10.6 ± 0.8			3060 ± 625	1880 ± 488						no depletion		
Cc1ccc(S(=O)(=O)NCl)cc1 [G2, chloramine T]	100%	23.9 ± 1.6%	53.8 ± 2.9%			80.8 ± 30.7	41.9 ± 0.2					1.62				no depletion	no depletion	58.5 ± 1.3
